Test results: patent publication US20150105252A1, “SUBSTITUTED PYRAZOLES AS HERBICIDES” (E I DU PONT DE NEMOURS AND COMPANY, priority 2013, published 2015)

Assays:
[1] = tested on: corn; test: Test C postemergence; format: in vivo, Zea mays; conditions: for Plant response rating (scale of 0 to 100 where 0 is no effect and 100 is complete control), Corn: Postemergence, 31 g ai/ha, visually evaluated after 13 to 15 days; for Corn plant response rating / Plant response rating, Corn: postemergence; for Corn plant response rating: 62 g ai/ha, scale 0 to 100
Summary of the method: (§1)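 Postemergence values come from plants sprayed at the 1- to 4-leaf stage (2–18 cm) in peat moss–vermiculite medium; preemergence values from seeds treated in a loam–sand blend. Both evaluated visually against controls after 13–15 greenhouse days, scale 0–100.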

[2] = tested on: wheat; test: Test C postemergence; format: in vivo, Triticum aestivum; conditions: for Plant response rating (scale of 0 to 100 where 0 is no effect and 100 is complete control), Wheat: Postemergence, 31 g ai/ha, visually evaluated after 13 to 15 days; for Wheat plant response rating / Plant response rating, Wheat: postemergence; for Wheat plant response rating: scale 0 to 100
Summary of the method: as §1

[3] = tested on: soybean; test: Test C postemergence; format: in vivo, Glycine max; conditions: for Plant response rating (scale of 0 to 100 where 0 is no effect and 100 is complete control), Soybean: Postemergence, 31 g ai/ha, visually evaluated after 13 to 15 days; for Soybean plant response rating / Plant response rating, Soybean: postemergence
Summary of the method: as §1

[4] = tested on: velvetleaf; test: Test A preemergence; format: in vivo, Abutilon theophrasti; conditions: preemergence
Summary of the method: (§2)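 Scoring was visual, on a scale where 100 means complete control and 0 means no effect, comparing treated with untreated plants around 10 days post-application. Compounds in surfactant-containing non-phytotoxic solvent were sprayed onto soil preemergence or onto one- to two-leaf seedlings (2–10 cm) postemergence.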

[5] = tested on: pigweed; test: Test C postemergence; format: in vivo, Amaranthus retroflexus; conditions: for Plant response rating (scale of 0 to 100 where 0 is no effect and 100 is complete control), Pigweed: Postemergence, 31 g ai/ha, visually evaluated after 13 to 15 days; for Pigweed plant response rating / Plant response rating, Pigweed: postemergence; for Pigweed plant response rating: 62 g ai/ha, scale 0 to 100
Summary of the method: as §1

[6] = tested on: oilseed rape; test: Test C preemergence; format: in vivo, Brassica napus; conditions: for Oilseed Rape plant response rating / Plant response rating, Oilseed Rape: preemergence; for Plant response rating, Oilseed Rape: 125 g ai/ha, scale 0 to 100, 0 = no effect, 100 = complete control
Summary of the method: as §1

[7] = tested on: pigweed; test: Test A preemergence; format: in vivo, Amaranthus retroflexus; conditions: preemergence
Summary of the method: as §2

[8] = tested on: wheat; test: Test C preemergence; format: in vivo, Triticum aestivum; conditions: for Wheat plant response rating / Plant response rating, Wheat: preemergence; for Plant response rating, Wheat: 125 g ai/ha, scale 0 to 100, 0 = no effect, 100 = complete control
Summary of the method: as §1

[9] = tested on: ragweed; test: Test C postemergence; format: in vivo, Ambrosia elation; conditions: for Plant response rating (scale of 0 to 100 where 0 is no effect and 100 is complete control), Ragweed: Postemergence, 31 g ai/ha, visually evaluated after 13 to 15 days
Summary of the method: as §1

[10] = tested on: galium; test: Test C preemergence; format: in vivo, Galium aparine; conditions: for Galium plant response rating / Plant response rating, Galium: preemergence; for Plant response rating, Galium: 125 g ai/ha, scale 0 to 100, 0 = no effect, 100 = complete control
Summary of the method: as §1

[11] = tested on: ryegrass, Italian; test: Test C preemergence; format: in vivo, Lolium multiflorum; conditions: for Ryegrass, Italian plant response rating / Plant response rating, Ryegrass, Italian: preemergence; for Plant response rating, Ryegrass, Italian: 125 g ai/ha, scale 0 to 100, 0 = no effect, 100 = complete control
Summary of the method: as §1

[12] = tested on: barnyardgrass; test: Test B flood; format: in vivo, Echinochloa crus-galli; conditions: 250 g ai/ha, visual rating on 0 to 100 scale (0 no effect, 100 complete control), 13 to 15 days
Summary of the method: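 Plants were grown to the 2-leaf stage and pots flooded to 3 cm above soil. Compounds were applied directly into the paddy water, with depth kept for the test. After 13–15 days in greenhouse, response was rated visually against controls on a 0 (no effect) to 100 (complete control) scale.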

[13] = tested on: johnsongrass; test: Test C postemergence; format: in vivo, Sorghum halepense; conditions: for Plant response rating (scale of 0 to 100 where 0 is no effect and 100 is complete control), Johnsongrass: Postemergence, 31 g ai/ha, visually evaluated after 13 to 15 days; for Johnsongrass plant response rating / Plant response rating, Johnsongrass: postemergence; for Johnsongrass plant response rating: 62 g ai/ha, scale 0 to 100
Summary of the method: as §1

[14] = tested on: chickweed; test: Test C postemergence; format: in vivo, Stellaria media; conditions: for Plant response rating (scale of 0 to 100 where 0 is no effect and 100 is complete control), Chickweed: Postemergence, 31 g ai/ha, visually evaluated after 13 to 15 days; for Chickweed plant response rating / Plant response rating, Chickweed: postemergence; for Chickweed plant response rating: 62 g ai/ha, scale 0 to 100
Summary of the method: as §1

[15] = 250 g ai/ha, scale 0 to 100 (0 no effect, 100 complete control)
[16] = 125 g ai/ha, scale 0 to 100, 0 no effect, 100 complete control
[17] = 125 g ai/ha, visual injury, 0 to 100 scale, approx. 10 days
[18] = 500 g ai/ha, visual injury after approx. 10 days, 0 to 100 scale (0 no effect, 100 complete control)
[19] = 31 g ai/ha, visual rating, scale 0 to 100 (0 no effect, 100 complete control), 13 to 15 days
[20] = 62 g ai/ha, scale 0 to 100 (0 no effect, 100 complete control), 13 to 15 days
[21] = postemergence, 250 g ai/ha, scale 0 to 100 (0 no effect, 100 complete control)
[22] = postemergence, 125 g ai/ha, scale 0 to 100, 0 no effect, 100 complete control
[23] = 250 g ai/ha, scale 0 to 100, 0 is no effect, 100 is complete control

Structure (SMILES): CCCNC(=O)c1cc(CC)n(Cc2ccnc(OC(F)F)c2)n1 [Compound 132]
- Plant response rating (scale of 0 to 100 where 0 is no effect and 100 is complete control), Corn [1]: 5
- Corn plant response rating [1]: 5
- Plant response rating, Corn [1, 15]: 20
- Plant response rating, Corn [1, 16]: 75
- Plant response rating (scale of 0 to 100 where 0 is no effect and 100 is complete control), Wheat [2]: 5
- Wheat plant response rating ([2]; 62 g ai/ha): 10
- Plant response rating, Wheat [2, 15]: 15
- Plant response rating, Wheat [2, 16]: 10
- Plant response rating (scale of 0 to 100 where 0 is no effect and 100 is complete control), Soybean [3]: 65
- Soybean plant response rating ([3]; 62 g ai/ha, scale 0 to 100): 45
- Plant response rating, Soybean [3, 15]: 98
- Plant response rating, Soybean [3, 16]: 95
- Velvetleaf plant response rating [4, 17]: 100
- Velvetleaf plant response rating [4, 18]: 100
- Plant response rating (scale of 0 to 100 where 0 is no effect and 100 is complete control), Pigweed [5]: 10
- Pigweed plant response rating [5]: 30
- Plant response rating, Pigweed [5, 15]: 60
- Plant response rating, Pigweed [5, 16]: 35
- Plant response rating (scale of 0 to 100), Oilseed Rape ([6]; Preemergence, 250 g ai/ha): 100
- Oilseed Rape plant response rating [6, 19]: 75
- Oilseed Rape plant response rating [6, 20]: 98
- Plant response rating, Oilseed Rape ([6]; 13 to 15 days): 100
- Pigweed plant response rating [7, 17]: 100
- Pigweed plant response rating [7, 18]: 100
- Plant response rating (scale of 0 to 100), Wheat ([8]; Preemergence, 250 g ai/ha): 95
- Wheat plant response rating [8, 19]: 15
- Wheat plant response rating [8, 20]: 15
- Plant response rating, Wheat ([8]; 13 to 15 days): 70
- Plant response rating (scale of 0 to 100 where 0 is no effect and 100 is complete control), Ragweed [9]: 10
- Ragweed plant response rating ([9]; postemergence, 62 g ai/ha, scale 0 to 100): 10
- Plant response rating, Ragweed [9, 21]: 90
- Plant response rating, Ragweed [9, 22]: 55
- Plant response rating (scale of 0 to 100), Galium ([10]; Preemergence, 250 g ai/ha): 100
- Galium plant response rating [10, 19]: 98
- Galium plant response rating [10, 20]: 100
- Plant response rating, Galium ([10]; 13 to 15 days): 100
- Plant response rating (scale of 0 to 100), Ryegrass, Italian ([11]; Preemergence, 250 g ai/ha): 98
- Ryegrass, Italian plant response rating [11, 19]: 15
- Ryegrass, Italian plant response rating [11, 20]: 85
- Plant response rating, Ryegrass, Italian ([11]; 13 to 15 days): 98
- Plant response rating, Barnyardgrass [12]: 60
- Plant response rating (scale of 0 to 100 where 0 is no effect and 100 is complete control), Johnsongrass [13]: 5
- Johnsongrass plant response rating [13]: 5
- Plant response rating, Johnsongrass [13, 15]: 75
- Plant response rating, Johnsongrass [13, 16]: 25
- Plant response rating (scale of 0 to 100 where 0 is no effect and 100 is complete control), Chickweed [14]: 75
- Chickweed plant response rating [14]: 70
- Plant response rating, Chickweed [14, 15]: 85
- Plant response rating, Chickweed [14, 16]: 75

Structure (SMILES): CCc1cc(C(=O)NC(C)C)nn1Cc1ccnc(C(F)(F)F)c1 [Compound 139]
- Plant response rating (scale of 0 to 100 where 0 is no effect and 100 is complete control), Corn [1]: 5
- Corn plant response rating [1]: 10
- Plant response rating, Corn [1, 15]: 20
- Plant response rating, Corn [1, 16]: 15
- Plant response rating (scale of 0 to 100 where 0 is no effect and 100 is complete control), Wheat [2]: 5
- Plant response rating, Wheat [2, 15]: 25
- Wheat plant response rating [2]: 5
- Plant response rating (scale of 0 to 100 where 0 is no effect and 100 is complete control), Soybean [3]: 15
- Plant response rating, Soybean [3, 15]: 85
- Soybean plant response rating [3, 16]: 55
- Velvetleaf plant response rating [4, 17]: 30
- Velvetleaf plant response rating [4, 18]: 100
- Plant response rating (scale of 0 to 100 where 0 is no effect and 100 is complete control), Pigweed [5]: 30
- Pigweed plant response rating [5]: 40
- Plant response rating, Pigweed [5, 15]: 60
- Plant response rating, Pigweed [5, 16]: 40
- Oilseed Rape plant response rating [6, 19]: 50
- Oilseed Rape plant response rating [6, 20]: 100
- Plant response rating, Oilseed Rape ([6]; 13 to 15 days): 100
- Oilseed Rape plant response rating [6, 23]: 100
- Pigweed plant response rating [7, 17]: 100
- Pigweed plant response rating [7, 18]: 100
- Wheat plant response rating [8, 19]: 30
- Wheat plant response rating [8, 20]: 85
- Plant response rating, Wheat ([8]; 13 to 15 days): 85
- Wheat plant response rating [8, 23]: 90
- Plant response rating (scale of 0 to 100 where 0 is no effect and 100 is complete control), Ragweed [9]: 35
- Plant response rating, Ragweed [9, 21]: 25
- Plant response rating, Ragweed [9, 22]: 35
- Galium plant response rating [10, 19]: 30
- Galium plant response rating [10, 20]: 80
- Plant response rating, Galium ([10]; 13 to 15 days): 100
- Galium plant response rating [10, 23]: 100
- Ryegrass, Italian plant response rating [11, 19]: 10
- Ryegrass, Italian plant response rating [11, 20]: 60
- Plant response rating, Ryegrass, Italian ([11]; 13 to 15 days): 90
- Ryegrass, Italian plant response rating [11, 23]: 90
- Plant response rating, Barnyardgrass [12]: 60
- Plant response rating (scale of 0 to 100 where 0 is no effect and 100 is complete control), Johnsongrass [13]: 5
- Johnsongrass plant response rating [13]: 5
- Plant response rating, Johnsongrass [13, 15]: 20
- Plant response rating, Johnsongrass [13, 16]: 10
- Plant response rating (scale of 0 to 100 where 0 is no effect and 100 is complete control), Chickweed [14]: 60
- Chickweed plant response rating [14]: 60
- Plant response rating, Chickweed [14, 15]: 80
- Plant response rating, Chickweed [14, 16]: 65
